Entries after “also recorded” stand apart in the source; their conditions may differ. Where a SMILES comes first, the peptide text is derived from it.
Legend:
[1] = Membrane potential restoring ability, JC-1, comparison of SS-31 and CMP3013; format: cell-based; conditions: 1 mM H2O2; 10 or 30 nM
Description: For comparison of efficacy of the two peptides on restoration of mitochondrial function, SS-31 and CMP3013 were tested for their effect on membrane potential. The change in mitochondrial membrane potential was measured as a fluorescence ratio of JC-1 according to the method described in Experimental Example 8, and 1 mM of H2O2 was used as a mitochondrial damaging agent.

HeLa cells [2] = assay: ATP levels in damaged cells pretreated with peptide; format: cell-based; conditions: HeLa cells, 10 or 30 nM; 1 μM antimycin A or 1 mM H2O2
Description: The relative ATP levels of cells were compared by fluorescence intensity according to the method described in Experimental Example 8, and mitochondrial damage was induced by treatment with two different mitochondrial damaging agents (1 μM of antimycin A or 1 mM of H2O2).
Cellular ATP levels were assessed using an ATP detection kit (Abcam, ab113849, USA) according to the manufacturer's instructions. Fluorescence luminescence was measured with a microplate reader (Promega, Glomax 96 microplate luminometer, USA).

SH-SY5Y cells = assay: ROS production inhibiting ability, comparison of SS-31 and CMP3013; format: cell-based; conditions: CCCP, rotenone, antimycin A or H2O2, SS-31 100 nM or 1 μM, CMP3013 10 nM or 100 nM
Description: To compare effects of the two peptides on restoration of mitochondrial function, SS-31 and CMP3013 were tested for their ROS production inhibiting ability. The relative ROS levels in cells were compared by fluorescence intensity according to the method described in Experimental Example 6. SH-SY5Y cells were treated with four different mitochondrial damaging agents (200 μM CCCP, 50 μM rotenone, 10 μM antimycin A, or 50 μM H2O2) to induce production of ROS by mitochondrial damage.
The second method was performed as follows. First, 2×10^4 HeLa cells were seeded into a 96-well plate. After 24 hours, the cells were incubated with each peptide for 3 hours, and then staining with H2DCFDA (25 μM, 30 min) was performed. After performing washing twice with PBS, the cells in HBSS were used for analysis of ROS levels. The DCF signal of each well was obtained using a microplate reader (TECAN) at 37° C. (Ex/Em=485/535 nm).

C57BL/6 mice = assay: TAA-induced acute liver failure model
Description: Serum samples were obtained from blood collected from the heart on Day 6, and the samples were analyzed using a hematology analyzer (Hitachi Chemical Industries, Ltd., Japan). Blood AST (aspartate aminotransferase), ALT (alanine aminotransferase), and ALP (alkaline phosphatase) were measured and evaluated as liver injury markers.
Serum samples were obtained on the seventh day (Day 7) and analyzed using a hematology analyzer. Blood AST (aspartate aminotransferase), ALT (alanine aminotransferase), and ALP (alkaline phosphatase) were measured and evaluated as liver injury markers.

HeLa cells [3] = format: cell-based
Description: Cell-penetrating ability was evaluated using the fluorescently-labeled versions of the dimeric bundle peptides synthesized in Example 3, and measured as EC50 values according to the method described in Experimental Example 3.
1×10^5 HeLa cells were seeded into a 24-well plate. After 24 hours, the peptide was added to the cells and further incubation was performed for 3 hours. The incubated cells were harvested, washed with PBS, suspended in PBS, and then analyzed by fluorescence-activated cell sorting (FACS; BD Accuri, USA). The cells whose fluorescence intensity exceeds the maximum intensity of untreated cells were classified as fluorescence-positive cells.

HeLa cells [4] = assay: Preferential binding to CCCP-damaged mitochondria, confocal microscopy; format: cell-based; conditions: 100 nM 3 hours, 20 μM CCCP
Description: To damage mitochondria, treatment with carbonyl cyanide m-chlorophenyl hydrazone (CCCP) at a concentration of 20 μM was performed for 30 minutes.
For microscopic observation, HeLa cells were cultured in glass-bottom dishes (SPL, 200350, Korea). The cells were then treated with peptides for 3 hours and stained with MitoTracker™ (Thermo Fisher Scientific, A1372, USA; 100 nM, 1 hr), nonyl acridine orange (NAO; Thermo Fisher Scientific, A1372; 100 nM, 1 hr), Hoechst 33342 (1 g/mL, 20 min), CellLight™ early endosomes-GFP (Thermo Fisher Scientific, C10586; 2 L/10,000 cells, 16 hr), and/or LysoTracker™ (Thermo Fisher Scientific, L7525; 50 nM, 30 min). The cells were then rinsed with PBS and HBSS was added thereto. Images of the stained cells were obtained using a microscope (Zeiss LSM 880 and ELYRA PS.1). To generate ultra-high resolution images, a structured illumination process was performed with ZEN Black software. Pearson r values were calculated by using ImageJ software.

HeLa cells [5] = assay: Mitochondria-targeting ability by mitochondrial fractionation; format: cell-based; conditions: EC50 concentration
Description: To determine at what rate the dimeric bundle peptides according to the present disclosure target mitochondria, mitochondrial fractionation was performed according to the method described in Experimental Example 4. […] Then, the cells were harvested and fractionation was performed.
Cell-penetrating ability was performed according to the method described in Experimental Example 3, and mitochondria-targeting ability was assessed by mitochondrial fractionation according to the method described in Experimental Example 4. In addition to SS-31 as a conventional peptide, a mitochondrial-penetrating peptide of Kelly's group (MPP1a; see Horton, Kristin L et al. “Mitochondria-penetrating peptides.” Chemistry & biology vol. 15, 4 (2008): 375-82) was used as an additional comparison group. The amino acid sequence of MPP1a is as follows: X(dR)XKX(dR)XK (where X is cyclohexylalanine, dR is D-arginine, and K is lysine).
Intracellular distribution of peptides was detected using the mitochondria isolation method. […] The cells were harvested, washed with cold PBS, and suspended in cold IB (30 mM Tris-HCl, pH 7.4; 225 mM mannitol; 75 mM sucrose; and 0.1 mM EGTA). […] Lysed cells were monitored under a light microscope. […] The fluorescence intensity of each fraction was measured by using a microplate reader [TECAN, Switzerland; excitation (Ex)/emission (Em)=510/570 nm].

HeLa cells [6] = assay: Co-localization with endosome, lysosome and cardiolipin (NAO) markers; format: cell-based
Description: Next, to investigate whether mitochondrial damage affects the amount of peptide present in lysosomes, cardiolipin-specific targeting was investigated using NAO in the presence or absence of CCCP.
For microscopic observation, HeLa cells were cultured in glass-bottom dishes (SPL, 200350, Korea). The cells were then treated with peptides for 3 hours and stained with MitoTracker™ (Thermo Fisher Scientific, A1372, USA; 100 nM, 1 hr), nonyl acridine orange (NAO; Thermo Fisher Scientific, A1372; 100 nM, 1 hr), Hoechst 33342 ([…], 20 min), CellLight™ early endosomes-GFP (Thermo Fisher Scientific, C10586; […], 16 hr), and/or LysoTracker™ (Thermo Fisher Scientific, L7525; 50 nM, 30 min). The cells were then rinsed with PBS and HBSS was added thereto. Images of the stained cells were obtained using a microscope (Zeiss LSM 880 and ELYRA PS.1). To generate ultra-high resolution images, a structured illumination process was performed with ZEN Black software. Pearson r values were calculated by using ImageJ software.

[7] = 1 mg/kg intravenous x3, TAA 100 mg/kg Day 5, serum Day 6
[8] = mice, 1 mg/kg intravenous, Days 0, 2, 4

In the case of `CC(=O)N[C@@H](CC1CCCCC1)C(=O)N[C@H]1CSSC[C@@H](C(=O)N[C@@H](CCCNC(=N)N)C(N)=O)NC(=O)[C@H](CC2CCCCC2)NC(=O)[C@H](CCCNC(=N)N)NC(=O)[C@H](CCCNC(=N)N)NC(=O)[C@H](CC2CCCCC2)NC(=O)[C@H](CC(C)C)NC(=O)[C@H](CCCNC(=N)N)NC(=O)[C@@H](NC(=O)[C@H](CC2CCCCC2)NC(C)=O)CSSC[C@@H](C(=O)N[C@@H](CCCNC(=N)N)C(N)=O)NC(=O)[C@H](CC2CCCCC2)NC(=O)[C@H](CCCNC(=N)N)NC(=O)[C@H](CCCNC(=N)N)NC(=O)[C@H](CC2CCCCC2)NC(=O)[C@H](CC(C)C)NC(=O)[C@H](CCCNC(=N)N)NC1=O` [CMP3013] (HELM PEPTIDE1{[ac].[Cha].C.R.L.[Cha].R.R.[Cha].C.R.[am]}|PEPTIDE2{[ac].[Cha].C.R.L.[Cha].R.R.[Cha].C.R.[am]}$PEPTIDE1,PEPTIDE2,3:R3-10:R3|PEPTIDE1,PEPTIDE2,10:R3-3:R3$$$V2.0), the “mitochondrial membrane potential (Δψm), JC-1 ratio” value [1] was “increased mitochondrial membrane potential”, the “ATP production promoting ability” value (HeLa cells [2]) was “promoting resumption of ATP production” and the “ROS production inhibiting ability” value (SH-SY5Y cells) was “equivalent or better ROS production inhibiting ability than SS-31”. For the same compound, the “ALP decrease as compared with the TAA-administered group” value (C57BL/6 mice; 1 mg/kg intravenous x3) was 19%, the “AST reduction as compared with the group having received TAA alone” value (C57BL/6 mice; 1 mg/kg intravenous x3) was 35% and the “blood ALP” value (C57BL/6 mice; [7]) was 462.00±81.10 U/L. The “blood ALT” value (C57BL/6 mice; [7]) was 332.60±86.31 U/L, the “blood AST” value (C57BL/6 mice; [7]) was 316.40±52.65 U/L and the “dose dependence of AST and ALT decrease” value (C57BL/6 mice; intraperitoneal 1, 5, or 10 mg/kg) was “dose-dependent manner”. For the same compound, the “blood AST, ALT, and ALP” value (C57BL/6 mice; intraperitoneal x3, TAA 100 mg/kg Day 5, serum Day 7) was “all significantly reduced”, the adverse events (C57BL/6 mice; [8]) was “no adverse events occurred” and the mortality (C57BL/6 mice; [8]) was “no animals died”. The weight loss (C57BL/6 mice; mice, TAA and/or CMP3013) was “no weight loss was observed”, the “improvement in cell penetration rate as compared with SS-31” value (HeLa cells [3]) was “approximately 100 fold” and the “level of EC50 value (cell-penetrating ability)” value (HeLa cells [3]; comparison of CMP3013, LR10, MPP1a, SS-31) was “lowest EC50 value”. The “targeting of damaged mitochondria” value (HeLa cells [4]) was “moves into damaged mitochondria; also recorded: preferentially target damaged mitochondria”, the “mitochondrial/cytoplasmic abundance ratio (M/C ratio)” value (HeLa cells [5]) was 4.1 and the “rank of percentage in the mitochondrial fraction” value (HeLa cells [5]; 3 hours) was “highest percentage in the mitochondrial fraction”. The “proportion of peptide present in lysosomes (Pearson r, CMP3013-Lysotracker)” value (HeLa cells [6]; absence of CCCP) was 0.30, the “co-localization of CMP3013 with cardiolipin (NAO), Pearson r” value (HeLa cells [6]; not treated with CCCP) was 0.08 and the “proportion of peptide present in lysosomes (Pearson r, CMP3013-Lysotracker)” value (HeLa cells [6]; presence of CCCP) was 0.29. For the same compound, the “co-localization of CMP3013 with cardiolipin (NAO), Pearson r” value (HeLa cells [6]; treated with CCCP) was 0.43.

Reference: patent US20250282819A1, “MITOCHONDRIA-[…] PEPTIDE THAT CAN BE […] DELIVERED AT NANOMOLAR CONCENTRATION, AND USE THEREOF” (CAMP THERAPEUTICS INC., priority 2021, published 2025)
